{"source": "patent US9850283B2", "about": "“Macrocyclic inhibitors of the PD-1/PD-L1 and CD80(B7-1)/PD-L1 protein/protein interactions” (BRISTOL-MYERS SQUIBB COMPANY, priority 2013, dated 2017)", "key": {"Human PD-L1/PD-1": {"target": "T1, Human PD-L1/PD-1 (Homo sapiens, UniProt Q9NZQ7)", "T1 construct": "made in house; host or cells: HEK293T", "T1 sequence (Q9NZQ7 with tags, fused parts or gaps)": "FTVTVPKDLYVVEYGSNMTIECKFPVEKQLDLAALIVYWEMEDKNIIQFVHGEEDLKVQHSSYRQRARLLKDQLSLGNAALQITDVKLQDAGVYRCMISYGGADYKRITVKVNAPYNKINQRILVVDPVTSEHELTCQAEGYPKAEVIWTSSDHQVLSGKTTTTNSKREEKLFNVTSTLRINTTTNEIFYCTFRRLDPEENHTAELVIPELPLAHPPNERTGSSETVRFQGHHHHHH", "experiment": "HTRF PD-1-Ig/PD-L1-His binding assay (human PD-L1)", "outline": "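HTRF read-out: Eu cryptate anti-Ig mAb 1 nM final, APC anti-His mAb 20 nM final, added over the binding reaction. Proteins were PD-1-Ig and PD-L1-His ectodomain fusions. Buffer was dPBS, 0.1% BSA, 0.05% Tween-20.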"}, "[1]": {"target": "T2, LK35.2-hPD-L1 cells / PE-labeled PD-1-Ig (Homo sapiens, UniProt Q9NZQ7)", "T2 construct": "expressed in transfected cells; host or cells: LK35.2 mouse B cell line", "T2 sequence (Q9NZQ7 19-290)": "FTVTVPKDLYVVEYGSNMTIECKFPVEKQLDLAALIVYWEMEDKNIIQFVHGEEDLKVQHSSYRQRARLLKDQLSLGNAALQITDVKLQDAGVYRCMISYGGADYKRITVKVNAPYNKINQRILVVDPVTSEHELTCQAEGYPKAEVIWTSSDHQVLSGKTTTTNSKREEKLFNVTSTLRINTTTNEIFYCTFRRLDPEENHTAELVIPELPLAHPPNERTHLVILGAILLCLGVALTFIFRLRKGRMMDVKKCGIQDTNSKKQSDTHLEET", "experiment": "LK35.2-hPD-L1 cell binding high-content screening assay", "format": "cell-based", "conditions": "cell binding assay, cell line not given", "outline": "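Fluorescent PD-1-Ig binding to PD-L1-expressing LK35.2 cells, imaged after washing. Conditions: 1 nM PE-PD-1-Ig, 37 °C, 1 h, RPMI with 10% fetal calf serum.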"}, "[2]": {"conditions": "cluster symbol, read-out: HTRF IC50 cluster"}, "[3]": {"conditions": "cluster symbol, read-out: CBA IC50 cluster"}, "[4]": {"conditions": "value given instead of cluster, read-out: HTRF IC50 value"}}, "note": "Like-named read-outs stand apart in the source and are kept apart here. Positions of bridges follow the written chain, without caps; N, C: chain ends. Non-standard residues stand in square brackets, D forms with d. Residues, ends and D or L forms follow the SMILES beside them. Pro(trans-4-F) = O=C(O)[C@@H]1C[C@@H](F)CN1; Bta = N[C@@H](Cc1csc2ccccc12)C(=O)O; NMeNle = CCCC[C@H](NC)C(=O)O; NMeA = CN[C@@H](C)C(=O)O; Orn = NCCC[C@H](N)C(=O)O; Dab = NCC[C@H](N)C(=O)O; Dap = NC[C@H](N)C(=O)O; Sar = CNCC(=O)O"}
{"smiles": "CCCC[C@H]1C(=O)N2CCC[C@@H]2C(=O)N[C@@H](CCCNC(=N)N)C(=O)N[C@H](C(=O)NCC(N)=O)CSCC(=O)N[C@@H](Cc2ccc(O)cc2)C(=O)N(C)[C@@H](C)C(=O)N[C@@H](CC(N)=O)C(=O)N2CCC[C@H]2C(=O)N[C@@H](Cc2cnc[nH]2)C(=O)N[C@@H](CC(C)C)C(=O)N2CCC[C@H]2C(=O)N[C@@H](Cc2c[nH]c3ccccc23)C(=O)N[C@@H](CO)C(=O)N[C@@H](Cc2csc3ccccc23)C(=O)N1C", "note": "[Example 5004] ({CH2CO}-Y[NMeA]NPHLPWS[Bta][NMeNle][dP]RCG-NH2; thioether N-14)", "values": [{"measurement": "IC50", "setting": "Human PD-L1/PD-1; [2]", "value": "6.76 to 30.3", "unit": "nM"}, {"measurement": "IC50", "setting": "[1]; [3]", "value": "4.78 to 72.9", "unit": "nM"}]}
{"smiles": "CCCC[C@H]1C(=O)N(C)[C@@H](COc2cccc(C)c2)C(=O)N[C@@H](CCCNC(=N)N)C(=O)N[C@H](C(=O)NCC(N)=O)CSCC(=O)N[C@@H](Cc2ccc(O)cc2)C(=O)N(C)[C@@H](C)C(=O)N[C@@H](CC(N)=O)C(=O)N2CCC[C@H]2C(=O)N[C@@H](CN)C(=O)N[C@@H](CC(C)C)C(=O)N2C[C@H](O)C[C@H]2C(=O)N[C@@H](Cc2c[nH]c3ccccc23)C(=O)N[C@@H](CO)C(=O)N[C@@H](Cc2csc3ccccc23)C(=O)N1C", "note": "[Example 5005]", "values": [{"measurement": "IC50", "setting": "Human PD-L1/PD-1; [2]", "value": "6.76 to 30.3", "unit": "nM"}, {"measurement": "IC50", "setting": "[1]; [3]", "value": "4.78 to 72.9", "unit": "nM"}]}
{"smiles": "CCCC[C@H]1C(=O)N(C)[C@@H](CCCC)C(=O)N[C@@H](CCN)C(=O)N[C@H](C(=O)NCC(N)=O)CSCC(=O)N[C@@H](Cc2ccccc2)C(=O)N(C)[C@@H](C)C(=O)N[C@@H](CC(N)=O)C(=O)N2CCC[C@H]2C(=O)N[C@@H](Cc2cnc[nH]2)C(=O)N[C@@H](CC(C)C)C(=O)N(C)CC(=O)N[C@@H](Cc2c[nH]c3ccccc23)C(=O)N[C@@H](CO)C(=O)N[C@@H](Cc2c[nH]c3ccccc23)C(=O)N1C", "note": "[Example 5006] ({CH2CO}-F[NMeA]NPHL[Sar]WSW[NMeNle][NMeNle][Dab]CG-NH2; thioether N-14)", "values": [{"measurement": "IC50", "setting": "Human PD-L1/PD-1; [2]", "value": "0.385 to 6.74", "unit": "nM"}, {"measurement": "IC50", "setting": "[1]; [3]", "value": "4.78 to 72.9", "unit": "nM"}]}
{"smiles": "CCCC[C@H]1C(=O)N(C)[C@@H](CCCC)C(=O)N[C@@H](CN)C(=O)N[C@H](C(=O)NCC(N)=O)CSCC(=O)N[C@@H](Cc2ccccc2)C(=O)N(C)[C@@H](C)C(=O)N[C@@H](CC(N)=O)C(=O)N2CCC[C@H]2C(=O)N[C@@H](Cc2cnc[nH]2)C(=O)N[C@@H](CC(C)C)C(=O)N(C)CC(=O)N[C@@H](Cc2c[nH]c3ccccc23)C(=O)N[C@@H](CO)C(=O)N[C@@H](Cc2c[nH]c3ccccc23)C(=O)N1C", "note": "[Example 5007] ({CH2CO}-F[NMeA]NPHL[Sar]WSW[NMeNle][NMeNle][Dap]CG-NH2; thioether N-14)", "values": [{"measurement": "IC50", "setting": "Human PD-L1/PD-1; [2]", "value": "6.76 to 30.3", "unit": "nM"}, {"measurement": "IC50", "setting": "[1]; [3]", "value": "4.78 to 72.9", "unit": "nM"}]}
{"smiles": "CCCC[C@H]1C(=O)N(C)[C@@H](CCCC)C(=O)N[C@@H](CCCNC(=N)N)C(=O)N[C@H](C(=O)NCC(N)=O)CSCC(=O)N[C@@H](Cc2ccccc2)C(=O)N(C)[C@@H](C)C(=O)N[C@@H](CC(N)=O)C(=O)N2CCC[C@H]2C(=O)N[C@@H](Cc2c[nH]cn2)C(=O)N[C@@H](CC(C)C)C(=O)N(C)CC(=O)N[C@@H](Cc2c[nH]c3ccccc23)C(=O)N[C@@H]([C@@H](C)O)C(=O)N[C@@H](Cc2c[nH]c3ccccc23)C(=O)N1C", "note": "[Example 5008] ({CH2CO}-F[NMeA]NPHL[Sar]WTW[NMeNle][NMeNle]RCG-NH2; thioether N-14)", "values": [{"measurement": "IC50", "setting": "Human PD-L1/PD-1; [4]", "value": 18.1, "unit": "nM"}, {"measurement": "IC50", "setting": "[1]; value given instead of cluster, read-out: CBA IC50 value", "value": 22.7, "unit": "nM"}]}
{"smiles": "CCCC[C@H]1C(=O)N2CCC[C@@H]2C(=O)N[C@@H](CCCNC(=N)N)C(=O)N[C@H](C(=O)NCC(N)=O)CSCC(=O)N[C@@H](Cc2ccccc2)C(=O)N(C)[C@@H](C)C(=O)N[C@@H](CC(N)=O)C(=O)N2CCC[C@H]2C(=O)N[C@@H](Cc2cnc[nH]2)C(=O)N[C@@H](CC(C)C)C(=O)N(C)CC(=O)N[C@@H](Cc2c[nH]c3ccccc23)C(=O)N[C@@H](CO)C(=O)N[C@@H](Cc2c[nH]c3ccccc23)C(=O)N1C", "note": "[Example 5009] (HELM PEPTIDE1{[O=C(C[*:3])[*:2]].F.[meA].N.P.H.L.[Sar].W.S.W.[CCCC[C@@H](C(=O)[*:2])N(C)[*:1]].[dP].R.C.G.[am]}$PEPTIDE1,PEPTIDE1,1:R3-15:R3$$$V2.0)", "values": [{"measurement": "IC50", "setting": "Human PD-L1/PD-1; [4]", "value": 30.5, "unit": "nM"}, {"measurement": "IC50", "setting": "[1]; [3]", "value": "> 74.3", "unit": "nM"}]}
{"smiles": "CCCC[C@H]1C(=O)N2CCC[C@@H]2C(=O)N[C@@H](CCCN)C(=O)N[C@H](C(=O)NCC(N)=O)CSCC(=O)N[C@@H](Cc2ccc(O)cc2)C(=O)N(C)[C@@H](C)C(=O)N[C@@H](CC(N)=O)C(=O)N2CCC[C@H]2C(=O)N[C@@H](Cc2cnc[nH]2)C(=O)N[C@@H](CC(C)C)C(=O)N2CCC[C@H]2C(=O)N[C@@H](Cc2c[nH]c3ccccc23)C(=O)N[C@@H](CO)C(=O)N[C@@H](Cc2csc3ccccc23)C(=O)N1C", "note": "[Example 5010] ({CH2CO}-Y[NMeA]NPHLPWS[Bta][NMeNle][dP][Orn]CG-NH2; thioether N-14)", "values": [{"measurement": "IC50", "setting": "Human PD-L1/PD-1; [2]", "value": "6.76 to 30.3", "unit": "nM"}, {"measurement": "IC50", "setting": "[1]; [3]", "value": "4.78 to 72.9", "unit": "nM"}]}
{"smiles": "CCCC[C@H]1C(=O)N2CCC[C@@H]2C(=O)N[C@@H](CCCN)C(=O)N[C@H](C(=O)NCC(N)=O)CSCC(=O)N[C@@H](Cc2ccc(O)cc2)C(=O)N(C)[C@@H](C)C(=O)N[C@@H](CC(N)=O)C(=O)N2CCC[C@H]2C(=O)N[C@@H](Cc2cnc[nH]2)C(=O)N[C@@H](CC(C)C)C(=O)N2CCC[C@H]2C(=O)N[C@@H](Cc2c[nH]c3ccccc23)C(=O)N[C@@H](CO)C(=O)N[C@@H](Cc2c[nH]c3ccccc23)C(=O)N1C", "note": "[Example 5011] (HELM PEPTIDE1{[O=C(C[*:3])[*:2]].Y.[meA].N.P.H.L.P.W.S.W.[CCCC[C@@H](C(=O)[*:2])N(C)[*:1]].[dP].[Orn].C.G.[am]}$PEPTIDE1,PEPTIDE1,1:R3-15:R3$$$V2.0)", "values": [{"measurement": "IC50", "setting": "Human PD-L1/PD-1; [2]", "value": "6.76 to 30.3", "unit": "nM"}, {"measurement": "IC50", "setting": "[1]; [3]", "value": "4.78 to 72.9", "unit": "nM"}]}
{"smiles": "CCCC[C@H]1C(=O)N(C)[C@@H](CCCC)C(=O)N[C@@H](CCCNC(=N)N)C(=O)N[C@H](C(=O)NCC(N)=O)CSCC(=O)N[C@@H](Cc2ccccc2)C(=O)N(C)[C@@H](C)C(=O)N[C@@H](CC(N)=O)C(=O)N2C[C@H](F)C[C@H]2C(=O)N[C@@H](Cc2cnc[nH]2)C(=O)N[C@@H](CC(C)C)C(=O)N(C)CC(=O)N[C@@H](Cc2c[nH]c3ccccc23)C(=O)N[C@@H](CO)C(=O)N[C@@H](Cc2c[nH]c3ccccc23)C(=O)N1C", "note": "[Example 5012] ({CH2CO}-F[NMeA]N[Pro(trans-4-F)]HL[Sar]WSW[NMeNle][NMeNle]RCG-NH2; thioether N-14)", "values": [{"measurement": "IC50", "setting": "Human PD-L1/PD-1; [2]", "value": "> 30.5", "unit": "nM"}, {"measurement": "IC50", "setting": "[1]; [3]", "value": "> 74.3", "unit": "nM"}]}
{"smiles": "CCCC[C@H]1C(=O)N(C)[C@@H](CCCC)C(=O)N[C@@H](Cc2cnc[nH]2)C(=O)N[C@H](C(=O)NCC(N)=O)CSCC(=O)N[C@@H](Cc2ccccc2)C(=O)N(C)[C@@H](C)C(=O)N[C@@H](CC(N)=O)C(=O)N2CCC[C@H]2C(=O)N[C@@H](Cc2cnc[nH]2)C(=O)N[C@@H](CC(C)C)C(=O)N(C)CC(=O)N[C@@H](Cc2c[nH]c3ccccc23)C(=O)N[C@@H](CO)C(=O)N[C@@H](Cc2c[nH]c3ccccc23)C(=O)N1C", "note": "[Example 5013] ({CH2CO}-F[NMeA]NPHL[Sar]WSW[NMeNle][NMeNle]HCG-NH2; thioether N-14)", "values": [{"measurement": "IC50", "setting": "Human PD-L1/PD-1; [2]", "value": "> 30.5", "unit": "nM"}, {"measurement": "IC50", "setting": "[1]; [3]", "value": "> 74.3", "unit": "nM"}]}
{"smiles": "CCCC[C@H]1C(=O)N(C)[C@@H](CCCC)C(=O)N[C@@H](CC(N)=O)C(=O)N[C@H](C(=O)NCC(N)=O)CSCC(=O)N[C@@H](Cc2ccccc2)C(=O)N(C)[C@@H](C)C(=O)N[C@@H](CC(N)=O)C(=O)N2CCC[C@H]2C(=O)N[C@@H](Cc2cnc[nH]2)C(=O)N[C@@H](CC(C)C)C(=O)N(C)CC(=O)N[C@@H](Cc2c[nH]c3ccccc23)C(=O)N[C@@H](CO)C(=O)N[C@@H](Cc2c[nH]c3ccccc23)C(=O)N1C", "note": "[Example 5014] ({CH2CO}-F[NMeA]NPHL[Sar]WSW[NMeNle][NMeNle]NCG-NH2; thioether N-14)", "values": [{"measurement": "IC50", "setting": "Human PD-L1/PD-1; [2]", "value": "6.76 to 30.3", "unit": "nM"}, {"measurement": "IC50", "setting": "[1]; [3]", "value": "4.78 to 72.9", "unit": "nM"}]}
